One molecule from publication PMC3907409, “A Cytoplasmic New Catalytic Subunit of Calcineurin in Trypanosoma cruzi and Its Molecular and Functional Characterization” (PLoS Neglected Tropical Diseases, 2014) can be followed below.

The target of this assay is T1, TcCaNA2 (Trypanosoma cruzi, UniProt G9B7N4).
T1 construct: gene CaNA2; tag cleavage not mentioned; primers from CL Brener XM_816360.1
The assay is described as follows: colorimetric phosphatase assay, absorbance at […] nm. The class given is biochemical. The conditions noted are these: 80 mM p-NPP, 1 µg enzyme, 15 min at 30 °C; 1 mM MnCl2 or NiCl2 (also CaCl2, MgCl2).

T1 sequence (G9B7N4 entry or part of it): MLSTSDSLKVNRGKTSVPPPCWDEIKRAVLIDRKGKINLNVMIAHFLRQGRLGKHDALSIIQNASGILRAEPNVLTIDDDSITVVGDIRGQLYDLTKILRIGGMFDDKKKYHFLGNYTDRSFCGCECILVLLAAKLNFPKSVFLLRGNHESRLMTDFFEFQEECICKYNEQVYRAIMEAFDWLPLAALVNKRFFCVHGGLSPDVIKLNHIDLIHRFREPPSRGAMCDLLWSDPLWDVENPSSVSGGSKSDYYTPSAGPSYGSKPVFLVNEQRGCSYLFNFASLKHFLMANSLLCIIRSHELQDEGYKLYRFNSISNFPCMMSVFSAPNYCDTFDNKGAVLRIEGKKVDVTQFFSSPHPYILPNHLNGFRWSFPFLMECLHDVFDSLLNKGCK

Regarding `O=[N+]([O-])c1ccc(OP(=O)(O)O)cc1` [p-nitrophenyl phosphate], the “colorimetric phosphatase assay, absorbance at 405 nm” value is on record as “The recombinant protein TcCaNA2 showed enzymatic activity using p-NPP as substrate”.
